System: human mixed lymphocyte reaction (MLR)
Test: human mixed lymphocyte reaction (MLR) assay
Type: cell-based
Settings: immunosuppressant activity, read-out: Human MLR IC50 ± S.E.M.
Experimental: The immunosuppressant activity of the compounds of the present invention was determined using the human mixed lymphocyte reaction (MLR) assay described by Kino, T. et al. in Transplantation Proceedings, XIX(5):36-39. Suppl. 6 (1987). […]

- IC50: 0.91 ± 0.36 nM
SMILES: CO[C@H]1C[C@@H]2CC[C@@H](C)[C@@](O)(O2)C(=O)C(=O)N2CCCC[C@H]2C(=O)O[C@H]([C@H](C)C[C@@H]2CC[C@@H](O)[C@H](OC)C2)CC(=O)[C@H](C)/C=C(\C)[C@@H](O)[C@@H](OC)C(=O)[C@H](C)C[C@H](C)/C=C/C=C/C=C/1C [Rapamycin, reference compound]

Reference: patent EP1015459B9 (ABBOTT LABORATORIES, priority 1997, dated 1999)
